# According to patent US9988359B2, “Herbicidally active benzoic acid amides” (BAYER CROPSCIENCE AKTIENGESELLSCHAFT, priority 2014, dated 2018):
# System: AMARE Amaranthus retroflexus
# Experiment: Post-emergence herbicidal action against harmful plants
# Type: in vivo
# Conditions: dosage 80 g/ha, assessed visually after about 3 weeks, 100% = plants have died
# Protocol: (§1) AMARE Amaranthus retroflexus PHBPU Pharbitis purpureum Seeds of monocotyledonous and dicotyledonous weed and crop plants are laid out in sandy loam in wood-fiber pots, covered with soil and cultivated in a greenhouse under good growth conditions. 2 to 3 weeks after sowing, the test plants are treated at the one-leaf stage. The compounds of the invention, formulated in the form of wettable powders (WP) or as emulsion concentrates (EC), are then sprayed onto the green parts of the plants in the form of an aqueous suspension or emulsion at a water application rate equating to 600 to 800 l/ha, with addition of 0.2% wetting agent. After the test plants have been left to stand in the greenhouse under optimal growth conditions for about 3 weeks, the action of the preparations is assessed visually in comparison to untreated controls (herbicidal action in percent (%): 100% activity=the plants have died, 0% activity=like control plants).
row,Structure (SMILES),Activity against AMARE
1,CSc1c(C)ccc(C(=O)Nc2ncnn2C)c1C,90%
2,CSc1c(C)ccc(C(=O)Nc2ncnn2C)c1Br,70%
3,Cc1ccc(C(=O)Nc2ncnn2C)c(C)c1,0%
4,Cc1ccc(C(=O)Nc2ncnn2C)c(C)c1[S+](C)[O-] (stereo not shown),90%
5,Cc1ccc(C(=O)Nc2ncnn2C)c(Br)c1[S+](C)[O-] (stereo not shown),70%
6,Cc1ccc(C(=O)Nc2ncnn2C)c(C)c1S(C)(=O)=O,90%
7,Cc1c(C(=O)Nc2ncnn2C)ccc(Cl)c1S(C)(=O)=O,60%
8,Cc1ccc(C(=O)Nc2ncnn2C)c(Br)c1S(C)(=O)=O,60%

# System: PHBPU Pharbitis purpureum
# Experiment: as above
# Type: in vivo
# Conditions: dosage 20 g/ha, assessed visually after about 3 weeks, 100% = plants have died
# Protocol: as §1
row,Structure (SMILES),Activity against PHBPU
1,COSc1c(C)ccc(C(=O)Nc2nnc(C)o2)c1C,60%
2,COSc1c(C)ccc(C(=O)Nc2nnc(C)o2)c1Br,40%

# Same assay, conditions: dosage 20 g/ha, visual scoring after about 3 weeks vs untreated controls (100% = plants have died, 0% = like control plants)
row,Structure (SMILES),Activity against PHBPU
1,CSc1c(C)ccc(C(=O)Nc2nnc(C)o2)c1C,60%
2,CSc1c(C)ccc(C(=O)Nc2nnc(C)o2)c1Br,0%
3,CSc1c(Br)ccc(C(=O)Nc2nnc(C)o2)c1C,10%

# System: SETVI Setaria viridis
# Experiment: as above
# Type: in vivo
# Conditions: dosage 80 g/ha, assessed visually after about 3 weeks, 100% = plants have died
# Protocol: as §1, with “SETVI Setaria viridis” for “AMARE Amaranthus retroflexus PHBPU Pharbitis purpureum”
row,Structure (SMILES),Activity against SETVI
1,CSc1c(C)ccc(C(=O)Nc2nonc2C)c1C,0%
2,CSc1c(Cl)ccc(C(=O)Nc2nonc2C)c1C,0%
3,Cc1nonc1NC(=O)c1ccc(C(F)(F)F)c(S(C)(=O)=O)c1C,40%
4,Cc1nonc1NC(=O)c1ccc(C#N)c(S(C)(=O)=O)c1C,0%
5,Cc1ccc(C(=O)Nc2nonc2C)c(C)c1S(C)(=O)=O [drawing 24],40%
6,Cc1ccc(C(=O)Nc2nonc2C)c(C)c1S(C)(=O)=O [drawing 27],80%
